Source: the supplement of paper PMC4862054

Key:
Assay in all cases: normalised viability (% of control), CellTiter-Blue; higher = more viable cells (about 100 = DMSO control)
[1] = test system: BT-549; conditions: 10 nM; incubation time: 72 h
Procedure: (§1)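 DSRT, CellTiter-Blue viability, 72 h incubation. Signal is normalised to DMSO and benzethonium chloride controls. Value is the normalised response at dose 3.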

[2] = test system: CAL-120; conditions: 10 nM; incubation time: 72 h
Procedure: as §1

[3] = test system: DU-4475; conditions: 1 nM; incubation time: 72 h
Procedure: as §1

[4] = test system: HCC1937; conditions: 10 nM; incubation time: 72 h
Procedure: as §1

[5] = test system: HDQ-P1; conditions: 1 nM; incubation time: 72 h
Procedure: as §1

[6] = test system: MDA-MB-231; conditions: 10 nM; incubation time: 72 h
Procedure: as §1

[7] = test system: MDA-MB-468; conditions: 10 nM; incubation time: 72 h
Procedure: as §1

[8] = test system: SK-BR-3; conditions: 10 nM; incubation time: 72 h
Procedure: as §1

[9] = test system: BT-474; conditions: incubation time: 72 h
Method in brief: (§2)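 Breast cancer cell lines in 20 µl suspension were seeded onto 384-well plates pre-loaded with compound dissolved in 5 µl medium, then incubated 72 h. CellTiter-Blue reagent (2.5 µl) was added for 2 h at 37 °C and fluorescence read at 560/590 nm. Each plate was normalised to vehicle (100) and a positive kill control (0), with Z'-factor quality control. The value is normalised viability at one listed concentration of the series.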

[10] = test system: BT-549; conditions: incubation time: 72 h
Method in brief: as §2

[11] = test system: CAL-120; conditions: incubation time: 72 h
Method in brief: as §2

[12] = test system: CAL-148; conditions: incubation time: 72 h
Method in brief: as §2

[13] = test system: CAL-51; conditions: incubation time: 72 h
Method in brief: as §2

[14] = test system: CAL-85-1; conditions: incubation time: 72 h
Method in brief: as §2

[15] = test system: DU-4475; conditions: incubation time: 72 h
Method in brief: as §2

[16] = test system: HCC1143; conditions: incubation time: 72 h
Method in brief: as §2

[17] = test system: HCC1599; conditions: incubation time: 72 h
Method in brief: as §2

[18] = test system: HCC1937; conditions: incubation time: 72 h
Method in brief: as §2

[19] = test system: HDQ-P1; conditions: incubation time: 72 h
Method in brief: as §2

[20] = test system: Hs578T; conditions: incubation time: 72 h
Method in brief: as §2

[21] = test system: MDA-MB-231; conditions: incubation time: 72 h
Method in brief: as §2

[22] = test system: MDA-MB-436; conditions: incubation time: 72 h
Method in brief: as §2

[23] = test system: MDA-MB-453; conditions: incubation time: 72 h
Method in brief: as §2

[24] = test system: MDA-MB-468; conditions: incubation time: 72 h
Method in brief: as §2

[25] = test system: MFM-223; conditions: incubation time: 72 h
Method in brief: as §2

[26] = test system: SK-BR-3; conditions: incubation time: 72 h
Method in brief: as §2

Cc1c2oc3c(C)ccc(C(=O)N[C@@H]4C(=O)N[C@H](C(C)C)C(=O)N5CCC[C@H]5C(=O)N(C)CC(=O)N(C)[C@@H](C(C)C)C(=O)O[C@@H]4C)c3nc-2c(C(=O)N[C@@H]2C(=O)N[C@H](C(C)C)C(=O)N3CCC[C@H]3C(=O)N(C)CC(=O)N(C)[C@@H](C(C)C)C(=O)O[C@@H]2C)c(N)c1=O [Dactinomycin]
Conditions | normalised viability [%]
[1] | 17.8
[2] | 31.4
[3] | 32.1
[4] | 41.3
[5] | 59.2
[6] | 27.3
[7] | 18.9
[8] | 24.6

normalised viability [%]
Conditions | 0.3 nM | 1 nM | 3 nM | 10 nM | 100 nM | 1000 nM
[9] | – | 73.3 | – | – | 25.2 | 24.1
[10] | – | 56.6 | – | – | 4.94 | 4.47
[11] | – | 51 | – | – | 11.9 | 9.97
[12] | 71.8 | – | 32.4 | 4.61 | – | –
[13] | 99.7 | – | 50 | 17.8 | – | –
[14] | 79.1 | – | 43.6 | 40.8 | – | –
[15] | 89.3 | – | 2.85 | 0.2 | – | –
[16] | – | 50.3 | – | – | 17.6 | 16
[17] | – | 87.7 | – | – | 18.1 | 12.8
[18] | – | 65.8 | – | – | 21.8 | 18.4
[19] | 85.1 | – | 45.2 | 35.9 | – | –
[20] | – | 53.8 | – | – | 3.41 | 1.67
[21] | – | 53.3 | – | – | 7.55 | 5.39
[22] | – | 48.8 | – | – | 13.1 | 9.7
[23] | 85.1 | – | 42.9 | 40.5 | – | –
[24] | – | 60.3 | – | – | 3.39 | 4.33
[25] | – | 86.2 | – | – | 8.99 | 10.4
[26] | – | 76 | – | – | 3.88 | 4.85
